Tested on: HepaRG
Assay: LDH release cytotoxicity, % of total lysis control; higher = more cytotoxic
Conditions: 48 h
Summary of the method: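 HepaRG cells from a single lot were plated on collagen I-coated 96-well plates and treated in duplicate for 48 h with eight-point half-log series of test chemicals, starting at 100 µM, in serum-free induction medium containing 0.5% DMSO. Total lysis wells were given 0.1% Triton X. LDH released into 50 µL of spent medium was measured as resorufin fluorescence with CytoTox-ONE on a Tecan Safire. Percent cytotoxicity was normalized to on-plate vehicle and total lysis controls and then averaged across duplicates.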

CC(C)(c1ccc(O)cc1)c1ccc(O)cc1 [Bisphenol A]
Conditions | LDH release cytotoxicity [%]
0.03162 µM | -1.32
0.1 µM | -0.356
0.3162278 µM | -1.1
1 µM | -1.37
3.16228 µM | -0.158
10 µM | 0.439
31.6228 µM | 0.463
100 µM | 1.47

CCC(C)(c1ccc(O)cc1)c1ccc(O)cc1 [Bisphenol B]
Conditions | LDH release cytotoxicity [%]
0.03162 µM | -0.0728
0.1 µM | 0.29
0.3162278 µM | 0.714
1 µM | 2.34
3.16228 µM | 1.11
10 µM | 1.29
31.6228 µM | 1.29
100 µM | 4.62

OB(O)O [Boric acid (H3BO3)]
Conditions | LDH release cytotoxicity [%]
0.03162 µM | -0.989
0.1 µM | -0.753
0.3162278 µM | 0.0737
1 µM | -0.582
3.16228 µM | -0.954
10 µM | -0.232
31.6228 µM | 0.368
100 µM | 0.851

O=C(Nc1ccccc1-c1ccc(Cl)cc1)c1cccnc1Cl [Boscalid]
Conditions | LDH release cytotoxicity [%]
0.0332039 µM | -0.385
0.105 µM | -0.471
0.332039 µM | -0.417
1.05 µM | -1.35
3.32039 µM | -1.2
10.5 µM | -0.348
33.2039 µM | -0.586
105 µM | 0.89

CCC(C)N1C(=O)N=C(C)C(Br)C1=O (configuration not stated) [Bromacil]
Conditions | LDH release cytotoxicity [%]
0.031623 µM | -0.635
0.1 µM | -3.85
0.316228 µM | -3.85
1 µM | -3.54
3.16228 µM | -3.65
10 µM | -2.46
31.6228 µM | 0.888
100 µM | 5.41

N#Cc1cc(Br)c(O)c(Br)c1 [Bromoxynil]
Conditions | LDH release cytotoxicity [%]
0.0253 µM | -2.04
0.08 µM | -2.14
0.252982 µM | -2.16
0.8 µM | -1.57
2.52982 µM | -1.26
8 µM | 0.434
25.2982 µM | 0.49
80 µM | 55.4

O=[N+]([O-])C(Br)(CO)CO [Bronopol]
Conditions | LDH release cytotoxicity [%]
0.031623 µM | -1.83
0.1 µM | -3.38
0.316228 µM | -2.69
1 µM | -3.3
3.16228 µM | -3.31
10 µM | -2.52
31.6228 µM | -0.61
100 µM | 0.628

CC(C)N1C(=O)N(c2ccccc2)CSC1=NC(C)(C)C [Buprofezin]
Conditions | LDH release cytotoxicity [%]
0.03162 µM | -1.37
0.1 µM | -1.93
0.3162278 µM | -1.95
1 µM | -2.46
3.16228 µM | -2.17
10 µM | -1.91
31.6228 µM | -2.33
100 µM | 11.8

CS(=O)(=O)OCCCCOS(C)(=O)=O [Busulfan]
Conditions | LDH release cytotoxicity [%]
0.03162 µM | -1.48
0.1 µM | -0.871
0.3162278 µM | -1.32
1 µM | -2.08
3.16228 µM | -1.19
10 µM | -0.461
31.6228 µM | 0.385
100 µM | 0.593

CCCCOCN(C(=O)CCl)c1c(CC)cccc1CC [Butachlor]
Conditions | LDH release cytotoxicity [%]
0.03162 µM | 0.674
0.1 µM | -0.43
0.3162278 µM | -0.96
1 µM | -0.4246
3.16228 µM | -0.143
10 µM | 0.287
31.6228 µM | 0.713
100 µM | 2.96

C=CCOC(=O)C(C)(C)OC(=O)c1cc(-n2c(=O)cc(C(F)(F)F)n(C)c2=O)ccc1Cl [Butafenacil]
Conditions | LDH release cytotoxicity [%]
0.0317809 µM | -1.79
0.1005 µM | -0.9
0.317809 µM | -0.684
1.005 µM | -2.04
3.17809 µM | -1.27
10.05 µM | -0.764
31.7809 µM | -0.16
100.5 µM | 1.19

CC(C)N(Cc1ccccc1)C(=O)C(C)(C)C [Butam]
Conditions | LDH release cytotoxicity [%]
0.03162 µM | -0.681
0.1 µM | -1.54
0.3162278 µM | -1.1
1 µM | -0.413
3.16228 µM | -0.189
10 µM | 0.285
31.6228 µM | 0.032
100 µM | 0.934

CCCC(=O)O [Butanoic acid]
Conditions | LDH release cytotoxicity [%]
0.03162 µM | 0.168
0.1 µM | -0.77
0.3162278 µM | -0.76
1 µM | -1.47
3.16228 µM | -0.676
10 µM | -0.93
31.6228 µM | -0.26
100 µM | -0.235

CCC(C)Nc1c([N+](=O)[O-])cc(C(C)(C)C)cc1[N+](=O)[O-] (configuration not stated) [Butralin]
Conditions | LDH release cytotoxicity [%]
0.031623 µM | -1.24
0.1 µM | -2.37
0.316228 µM | -1.26
1 µM | -1.89
3.16228 µM | -2.08
10 µM | -2.15
31.6228 µM | -1.93
100 µM | -1.58

CCCCOC(=O)c1ccccc1 [Butyl benzoate]
Conditions | LDH release cytotoxicity [%]
0.03162 µM | -1.31
0.1 µM | -1.78
0.3162278 µM | -2.41
1 µM | -1.63
3.16228 µM | -1.96
10 µM | -1.46
31.6228 µM | -1.03
100 µM | 0.0897

CCSC(=O)N(CC(C)C)CC(C)C [Butylate]
Conditions | LDH release cytotoxicity [%]
0.03162 µM | -1.39
0.1 µM | -1.51
0.3162278 µM | -0.761
1 µM | -1.26
3.16228 µM | -0.761
10 µM | -0.00901
31.6228 µM | -0.0439
100 µM | -0.00901

CCCCc1ccccc1 [Butylbenzene]
Conditions | LDH release cytotoxicity [%]
0.03162 µM | -0.0627
0.1 µM | -0.967
0.3162278 µM | -0.793
1 µM | -0.547
3.16228 µM | -0.941
10 µM | -0.027
31.6228 µM | -0.00747
100 µM | 1.27

CCCCOC(=O)c1ccc(O)cc1 [Butylparaben]
Conditions | LDH release cytotoxicity [%]
0.03162 µM | -1.57
0.1 µM | -1.1
0.3162278 µM | -1.42
1 µM | -2.15
3.16228 µM | -2.51
10 µM | -2.14
31.6228 µM | -2.11
100 µM | -0.69

CCCCCCOC(=O)CC(CC(=O)OCCCCCC)(OC(=O)CCC)C(=O)OCCCCCC [Butyryl-n-trihexylcitrate]
Conditions | LDH release cytotoxicity [%]
0.03162 µM | -0.556
0.1 µM | -0.753
0.3162278 µM | -0.622
1 µM | -0.825
3.16228 µM | -0.796
10 µM | -0.597
31.6228 µM | -0.0452
100 µM | 0.5774

— the supplement of paper PMC7840683
